Laboratory results taken from PMC3430861, “The pharmacological profile of ELIC, a prokaryotic GABA-gated receptor” (Neuropharmacology, 2012).

Tests used:
GLIC = test system: GLIC; set-up: method as in Alqazzaz et al., 2011; settings: comparison ELIC vs GLIC; ref Alqazzaz et al., 2011; cited from earlier work
ELIC [1] = molecular target: T1, ELIC (Dickeya chrysanthemi, UniProt P0C7B7); assay: cell-based; type: cell-based, Erwinia chrysanthemi
T1 sequence (P0C7B7 8-321): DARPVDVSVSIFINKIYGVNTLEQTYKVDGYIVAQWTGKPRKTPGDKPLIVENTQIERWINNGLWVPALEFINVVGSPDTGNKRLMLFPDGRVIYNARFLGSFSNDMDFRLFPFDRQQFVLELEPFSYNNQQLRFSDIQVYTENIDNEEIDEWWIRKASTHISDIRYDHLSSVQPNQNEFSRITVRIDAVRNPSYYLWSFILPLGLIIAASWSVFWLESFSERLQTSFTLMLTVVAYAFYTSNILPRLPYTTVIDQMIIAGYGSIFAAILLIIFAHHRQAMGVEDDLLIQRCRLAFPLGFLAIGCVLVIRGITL
Method: Xenopus laevis oocyte-positive females were purchased from NASCO (Fort Atkinson, Wisconsin, USA) and maintained according to standard methods. Harvested stage V–VI Xenopus oocytes were washed in four changes of ND96 (96 mM NaCl, 2 mM KCl, 1 mM MgCl2, 5 mM HEPES, pH 7.5), de-folliculated in 1.5 mg ml^−1 collagenase Type 1A for approximately 2 h, washed again in four changes of ND96 and stored in ND96 containing 2.5 mM sodium pyruvate, […], 0.7 mM theophylline.
The ELIC sequence (Genbank accession number POC7B7) was purchased from Genscript as a synthetic gene with optimized codon usage for expression in Escherichia coli. […] Stage V and VI oocytes were injected with 20 ng cRNA, and currents recorded 1–3 days post-injection.

ELIC [2] = molecular target: T1, ELIC; assay: Inhibition of cysteamine-induced ELIC responses; type: cell-based, Erwinia chrysanthemi; settings: data not shown

CC(N)C12CC3CC(CC(C3)C1)C2 (stereo not drawn) [Rimantadine]
inhibition of GLIC (yes/no) (GLIC): inhibiting both receptors | inhibition of ELIC (yes/no) (ELIC [1]): inhibiting both receptors | nH (ELIC [1]): 1.0 ± 0.2 | IC50 (ELIC [1]; IC50): 54 µM | IC50 (ELIC [1]; pIC50 (Mean ± SEM)): 53.7 µM | inhibition of cysteamine-induced responses compared to inhibition of GABA-induced responses (ELIC [2]): no significant differences
